The text below walks through data of patent publication US7638623B2, “Galactoside inhibitors of galectins” (Forskarpatent I SYD AB, priority 2004, dated 2009).

One experiment concerns the target T1, galectin-3 (Homo sapiens, UniProt P17931).
T1 construct: made in house; host or cells: Escherichia coli
The experiment is described as follows: fluorescence polarization-based galectin-3 inhibition assay. To be noted: read-out: Calculated Kd. Format: binding. The method, then:
NMR-spectra were recorded with a Bruker DRX-400 instrument. Chemical shifts are given in ppm, with reference to internal residual solvent peaks. Chemical shifts and coupling constants were obtained from ^1H-NMR and proton resonances were assigned from COSY experiments. High-resolution FAB mass spectra (HRMS) were recorded with a JEOL SX-120 instrument. Fluorescence polarization experiments were performed on a PolarStar instrument (BMG, Offenburg; Germany). Column chromatography was performed on SiO2 (Matrex, 60 Å, 35-70 μm, Grace Amicon) and TLC was carried out on SiO2 60 F254 (Merck) with detection under UV light and developed with aqueous sulfuric acid. Concentrations were made using rotary evaporation with bath temperature at or below 40° C. CH2Cl2 and CH3CN were dried by distillation from CaH2.
To 100 μL of galectin-3 (1 μM) and a fluorescent probe (2-(fluorescein-5/6-yl-carbonyl)-aminoethyl 4-O-[3-O-(4-methoxylbenzyl)-β-D-galactopyranosyl]-β-D-glucopyranoside, 0.1 μM) were added inhibitor solution (3.2-80 μM, 100 μL), the plate was incubated under slow rotary shaking in the dark for 5 minutes, and fluorescence polarization measured at room temperature. The fluorescence was measured from above in 96 well microtiter plates (black polystyrene, Costar, Corning, N.Y.) using a PolarStar instrument (BMG, Offenburg; Germany). Control wells containing only fluorescent probe or fluorescein were included. All dilutions and measurements were done in PBS.

The next experiment has as its system galectins. The note with it: cited from earlier work.

T1 sequence (P17931 whole entry): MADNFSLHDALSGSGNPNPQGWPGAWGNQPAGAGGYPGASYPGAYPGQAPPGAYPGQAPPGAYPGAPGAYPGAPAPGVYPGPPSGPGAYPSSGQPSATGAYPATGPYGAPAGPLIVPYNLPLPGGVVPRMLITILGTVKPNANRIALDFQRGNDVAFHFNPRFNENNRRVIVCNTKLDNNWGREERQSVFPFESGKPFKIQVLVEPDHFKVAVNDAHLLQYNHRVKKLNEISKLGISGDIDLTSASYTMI

On to `O=C(N[C@H]1[C@@H](O)[C@@H](CO)O[C@@H](S[C@@H]2O[C@H](CO)[C@H](O)[C@H](NC(=O)c3ccc([N+](=O)[O-])cc3)[C@H]2O)[C@@H]1O)c1ccc([N+](=O)[O-])cc1` [Compound 20, Bis-[3-deoxy-3-(4-nitrobenzamido)-β-D-galactopyranosyl]sulfane], for which the equilibrium dissociation constant (Kd) at galectin-3 is 0.05 µM. With `O=C[C@H](O)[C@@H](O)[C@@H](O)[C@H](O)CO` [D-galactose], the “affinity, times lower than lactose” value with galectins (relative to lactose) is on record as 50-100 times. In the case of `O=C(N[C@H]1[C@@H](O)[C@@H](CO)O[C@@H](S[C@@H]2O[C@H](CO)[C@H](O)[C@H](NC(=O)c3ccc4ccccc4c3)[C@H]2O)[C@@H]1O)c1ccc2ccccc2c1` [Compound 21, Bis-[3-deoxy-3-(2-naphthamido)-β-D-galactopyranosyl]sulfane], the Kd on galectin-3 was 0.03 µM. For `COc1cc(OC)cc(C(=O)NC2C(O)[C@H](S[C@@H]3OC(CO)[C@H](O)C(NC(=O)c4cc(OC)cc(OC)c4)C3O)OC(CO)[C@@H]2O)c1` (stereo partly drawn) [Compound 19, Bis-[3-deoxy-(3,5-dimethoxybenzamido)-β-D-galactopyranosyl]sulfane], the Kd at galectin-3 is 0.02 µM. For the compound `CO[C@@H]1OC(CO)[C@@H](O[C@@H]2OC(CO)[C@H](O)C(O)C2O)C(O)C1NC(C)=O` (stereo partly drawn) [Compound 22, methyl β-glycoside of N-acetyllactosamine, reference compound], the Kd on galectin-3 is 52 µM.

Consider `O=C(N[C@H]1[C@@H](O)[C@@H](CO)O[C@@H](S[C@@H]2O[C@H](CO)[C@H](O)[C@H](NC(=O)c3ccccc3)[C@H]2O)[C@@H]1O)c1ccccc1` [Compound 17, Bis-(3-deoxy-3-benzamido-β-D-galactopyranosyl) sulfane], for which the Kd on galectin-3 is 1.44 µM. Turning to `OC[C@H]1O[C@@H](O[C@H]2[C@H](O)[C@@H](O)C(O)O[C@@H]2CO)[C@H](O)[C@@H](O)[C@H]1O` (stereo partly shown) [lactose], at galectins (all galectins), the dissociation constant Kd was 500 to 1000 µM.

Usually Kd stands for the free concentration of one partner at which half of the binding sites on the other are occupied at equilibrium, for simple one-to-one binding.
